Results: US5783562A, “Luteinizing hormone releasing hormone analogs” (Asta Medica Aktiengesellschaft, priority 1990, dated 1998)
Where two headings read alike, the source gives them in different places. Non-standard residues stand in square brackets, D forms with d. Residues, ends and D or L forms follow the SMILES beside them. dPhe(4-Cl) = N[C@H](Cc1ccc(Cl)cc1)C(=O)O; d2Nal = N[C@H](Cc1ccc2ccccc2c1)C(=O)O; d3Pal = N[C@H](Cc1cccnc1)C(=O)O

Key:
mast cells [1] = assay type: cell-based, rat
Experimental: The healthy, adult, male SD rats (BW 200-250 g) used in this experiment were housed in the same conditions as for the adult, female SD rats above. After anesthetizing with CO2, the peritoneal cavity was washed with 50 ml of PIPES AC medium containing 20 units of heparin. Following centrifugation at 200×g for 8 min. at 4° C., the cells were washed again and resuspended to a concentration of 8-to-24×10^5 total leukocytes/ml in […]. This suspension contained approximately 5-10% mast cells. Washed cells were used immediately after collection and were prewarmed for 5 min. at 37° C. prior to pipetting 0.3 ml aliquots into polystyrene tubes containing 0.3 ml of diluted peptide. The mixtures were incubated for 15 min. at 37° C., and the reaction was stopped by centrifugation at 400×g for 15 min. at 4° C. The supernatants were assayed for histamine content by manual fluorometric assay method after successful extraction with n-butanol and n-heptane. The histamine content can be obtained from the histamine standard curve (see below). The percentage of histamine release can be calculated from the following equation: [formula] where E is the fluorometric reading of the experimental sample, B is the fluorometric reading of samples with cells and buffer only, and C is the fluorometric reading of "complete" samples (cells treated with HCIO4). The standard curve can be obtained by plotting the OD values on a fluorometer at 350 nm/450 nm (activation/fluorescent) against the concentrations of serially diluted solutions of accurately weighed histamine hydrochloride. The relative parameter (r) of the histamine standard curve can be 0.9998, and the lowest detectable concentration of histamine is 0.5 ng/ml. The ED50 value of a peptide can be determined from the dose response curves obtained by plotting the histamine release versus the peptide concentration on semilogarithmic paper. All peptide samples should be tested with mast cells from a minimum of 3 different rats.

[2] = Water-solubility / hydrophilicity of the peptides; assay type: physicochemical
mast cells [3] = settings: neuropeptide SP, background; cited from earlier work
rat ovulation = assay: Corbin's rat antiovulation method (antiovulatory activity, AOA); assay type: in vivo; settings: in saline, at noon of proestrus, female SD rats
Experimental: Corbin's rat antiovulation method was used in the present invention. Healthy, adult, female SD rats (BW 200-250 g) were used in this experiment. All animals were maintained at 22°-24° C. and on a 14 hr./10 hr. (light/dark) schedule. They were given standard food and water ad libitum. Only those rats showing at least two consecutive 4-day estrous cycles in vaginal smear examination could be used in this experiment. The rats were given peptides (LHRH antagonists) at noon of proestrus with different doses in saline solution. The rats were sacrificed the next day, and both portions of their oviducts were examined using a dissecting microscope in order to determine the ovum number. The rats were divided into several groups according to the dosing, and each group consisted of about 10 rats. The control group, which was given an equivalent amount of saline, consisted of 9-10 rats. […] Evaluation of Histamine Releasing Activity

Compound: CC(=O)N[C@H](Cc1ccc2ccccc2c1)C(=O)N[C@H](Cc1ccc(Cl)cc1)C(=O)N[C@H](Cc1ccc(O)cc1)C(=O)N[C@@H](CO)C(=O)N[C@@H](CCCCN)C(=O)N[C@H](Cc1cccnc1)C(=O)N[C@@H](CC(C)C)C(=O)N[C@@H](CCCNC(=N)N)C(=O)N1CCC[C@H]1C(=O)N[C@H](C)C(N)=O [Compound 4] (Ac-[d2Nal][dPhe(4-Cl)][dY]SK[d3Pal]LRP[dA]-NH2)
- HRA (μg/ml) ED50 ± SEM (mast cells [1]): 6.1 µg/mL

Compound: CC(=O)N[C@H](Cc1ccc2ccccc2c1)C(=O)N[C@H](Cc1ccc(Cl)cc1)C(=O)N[C@H](Cc1cccnc1)C(=O)N[C@@H](CO)C(=O)N[C@@H](Cc1ccc(O)cc1)C(=O)N[C@H](Cc1cccnc1)C(=O)N[C@@H](CC(C)C)C(=O)N[C@@H](CCCNC(=N)N)C(=O)N1CCC[C@H]1C(=O)N[C@H](C)C(N)=O [III, NAc-D2Nal^1 -DpClPhe^2 -D3Pal^3 -Ser^4 -Tyr^5 -D3Pal^6 -Leu^7 -Arg^8 -Pro^9 -DAla^10 -NH2] (Ac-[d2Nal][dPhe(4-Cl)][d3Pal]SY[d3Pal]LRP[dA]-NH2)
- HRA (μg/ml) ED50 ± SEM (mast cells [1]): 9.8 µg/mL

Compound: CC(=O)N[C@H](Cc1ccc2ccccc2c1)C(=O)N[C@H](Cc1ccc(Cl)cc1)C(=O)N[C@H](Cc1cccnc1)C(=O)N[C@@H](CO)C(=O)N[C@@H](CCCNC(=N)N)C(=O)N[C@H](Cc1cccnc1)C(=O)N[C@@H](CC(C)C)C(=O)N[C@@H](CCCNC(=N)N)C(=O)N1CCC[C@H]1C(=O)N[C@H](C)C(N)=O [IV, NAc-D2Nal^1 -DpClPhe^2 -D3Pal^3 -Ser^4 -Arg^5 -D3Pal^6 -Leu^7 -Arg^8 -Pro^9 -DAla^10 -NH2] (Ac-[d2Nal][dPhe(4-Cl)][d3Pal]SR[d3Pal]LRP[dA]-NH2)
- hydrophilicity [2]: very strong hydrophilicity

Compound: Arg^1 -Pro^2 -Lys^3 -Pro^4 -Gln^5 -Gln^6 -Phe^7 -Phe^8 -Gly^9 -Leu^10 -Met^11 -NH2 [neuropeptide SP]
- ED50 for HRA (mast cells [3]): 5 to 15 µM

Compound: NAc-D2Nal^1 -DpClPhe^2 -DPhe^3 Ser^4 -Arg^5 -D3Pal^6 -Leu^7 -Arg^8 -Pro^9 -DAla^10 -NH2 [V]
- HRA (μg/ml) ED50 ± SEM (mast cells [1]; in vitro histamine release, rat peritoneal mast cells): 7.4 µg/mL
- % AOA/μg 0.25 (rat ovulation; 0.25 μg): 29%
- % AOA/μg 0.5 (rat ovulation; 0.5 μg): 60%
- % AOA/μg 1.0 (rat ovulation; 1.0 μg): 100%
